{"source": "patent US20040191240A1", "about": "“Composition and method for nerve regeneration” (priority 2003, published 2004)", "key": {"p75": {"target": "T1, p75 (Mus musculus, UniProt Q9Z0W1)", "T1 construct": "was incubated with lysates prepared from post-natal cerebellum that abundantly express p75; from tissue; host or cells: post-natal cerebellum lysate", "T1 sequence (Q9Z0W1 32-427)": "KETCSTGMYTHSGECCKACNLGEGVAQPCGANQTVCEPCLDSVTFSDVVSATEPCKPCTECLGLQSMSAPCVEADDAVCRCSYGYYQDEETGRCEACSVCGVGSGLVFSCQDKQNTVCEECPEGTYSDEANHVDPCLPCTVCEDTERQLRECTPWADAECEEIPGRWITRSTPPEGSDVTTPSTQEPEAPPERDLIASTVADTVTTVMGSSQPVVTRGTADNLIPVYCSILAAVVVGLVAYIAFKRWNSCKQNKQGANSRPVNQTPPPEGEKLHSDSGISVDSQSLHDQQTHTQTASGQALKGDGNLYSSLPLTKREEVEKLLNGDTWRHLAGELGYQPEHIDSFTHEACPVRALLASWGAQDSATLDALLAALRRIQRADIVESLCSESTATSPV", "assay": "Co-precipitation of p75 with GST-Pep5", "assay_type": "binding", "conditions": "lysates from post-natal cerebellum"}, "[1]": {"system": "cerebellar granule neurons", "assay": "Ca2+ fluorescence imaging (Oregon-green 488BAPTA-1 and Fura Red)", "assay_type": "cell-based", "conditions": "p7 rat cerebellar granule neurons; inhibitor or antibody with MAG"}, "[2]": {"system": "Rho kinase fragment (aa 1-543)", "assay": "Rho-kinase kinase assay in vitro (S6 kinase substrate peptide)", "assay_type": "biochemical"}, "[3]": {"target": "Rho-kinase (GST-CAT; aa 6-553) (Bos taurus, UniProt Q28021)", "sequence (Q28021 6-553)": "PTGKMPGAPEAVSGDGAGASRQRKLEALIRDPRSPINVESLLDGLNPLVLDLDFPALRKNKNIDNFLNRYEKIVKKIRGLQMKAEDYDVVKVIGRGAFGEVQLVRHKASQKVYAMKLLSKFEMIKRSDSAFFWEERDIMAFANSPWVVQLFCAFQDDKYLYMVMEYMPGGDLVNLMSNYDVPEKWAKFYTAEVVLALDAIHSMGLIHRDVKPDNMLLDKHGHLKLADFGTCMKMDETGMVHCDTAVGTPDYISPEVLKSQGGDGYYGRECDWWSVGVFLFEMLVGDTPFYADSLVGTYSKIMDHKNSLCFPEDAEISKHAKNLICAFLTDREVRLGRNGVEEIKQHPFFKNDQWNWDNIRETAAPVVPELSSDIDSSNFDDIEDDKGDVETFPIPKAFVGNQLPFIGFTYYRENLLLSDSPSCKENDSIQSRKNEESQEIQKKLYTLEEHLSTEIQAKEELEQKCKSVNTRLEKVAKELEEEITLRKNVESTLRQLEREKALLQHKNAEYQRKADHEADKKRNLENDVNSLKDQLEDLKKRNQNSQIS", "assay": "In vitro binding assay of p21 and Rho-kinase", "conditions": "p21 1 nM"}, "male Wistar rats [4]": {"system": "male Wistar rats", "assay": "Spinal cord injury, p21 and TAT-bound p21, BBB score", "assay_type": "in vivo, rat", "conditions": "osmotic pump to the injured site for 2 weeks; observed from day 2 for 6 weeks", "protocol": "200 g male Wistar rats were used. After a ninth thoracic vertebrae laminectomy was performed, the dorsal half of the spinal cord was dissected. […] In this case, the tip of a tube connected to the pump was left in the medullary space.\nAfter spinal cord injury, the functional recovery was assessed using the BBB score (Basso-Beattie-Bresnahan (BBB) Locomotor Rating; Basso, D. M., Beattie, M. S., Bresnahan, J. C., J. Neurotrauma 12 (1):1-21 (1995) ). Observation was carried out from day 2 after injury for 6 weeks."}, "[5]": {"system": "cerebellar granule neurons from P7 rats", "assay": "Neurite outgrowth (growth) assay, cerebellar neurons", "assay_type": "cell-based, rat", "conditions": "data not shown"}, "male Wistar rats [6]": {"system": "male Wistar rats", "assay": "Spinal cord injury (dorsal half dissected, ninth thoracic vertebra), agent pumped to the injured site", "assay_type": "in vivo, rat", "conditions": "continuous osmotic pump to the injured site; versus control peptide", "protocol": "200 g male Wistar rats were used. After the ninth thoracic vertebrae laminectomy was performed, the dorsal half of the spinal cord was dissected. A continuous osmotic pump was used to continuously administer either TAT(PTD domain)-fused Pep5 (TAT-[…]) (SEQ ID NO. 2) or TAT(PTD domain)-fused control peptide (TAT-[…]) (SEQ ID NO. 15) to the injured site for 6 weeks ([…]). In this case, the tip of a tube connected to the pump was left in the medullary space. After spinal cord injury, the functional recovery was assessed using the BBB score. The animals were observed on day 7, 14, 21, 28, 35, and 42 after injury. These experiments were carried out using techniques described in Fournier A. E., Takizawa, B. T., Strittmatter, S. M., J. Neurosci. 2003, 23, 1416-1423.\n200 g male Wistar rats were used. After the ninth thoracic vertebrae laminectomy was performed, the dorsal half of the spinal cord was dissected. A continuous osmotic pump was used to continuously administer either TAT-fused Pep5 or TAT (PTD domain)-fused control peptide to the injured site."}, "cerebellar neurons": {"system": "cerebellar neurons", "assay": "Neurite outgrowth assay, post-natal cerebellar neurons", "assay_type": "cell-based, mouse"}, "mice": {"system": "mice", "assay": "Spinal cord injury, similar experiments for mice (Example 2-7)", "assay_type": "in vivo, mouse", "protocol": "Similar experiments were carried out for mice as described above."}, "DRG neurons": {"system": "DRG neurons", "assay": "Neurite outgrowth assay, adult DRG neurons", "assay_type": "cell-based, mouse", "conditions": "peptide 100 nM"}, "RhoA": {"system": "RhoA", "assay": "Affinity-precipitation of GTP-RhoA in cerebellar neurons", "assay_type": "cell-based, mouse", "conditions": "Nogo peptide 4 μM, MAG-Fc 25 μg/ml", "protocol": "293 cells were transfected with pcDNA3 vectors containing wild type RhoA whose NH2-terminus is tagged with HA (Yamashita, T. et al., Neuron. 24:585-593, 1999) and/or full-length human p75 by lipofection using Lipofectamine 2000 (Gibco BRL). Cerebellar neurons from P9 mice were isolated as described previously (Cai et al, Neuron, 22:89-101, 1999). Cells were lysed in 50 mM Tris (pH 7.5), 1% Triton X-100, 0.5% sodium deoxycholate, 0.1% SDS, 500 mM NaCl, 10 mM MgCl2, with leupeptin and aprotinin, each at 10 μg/ml. Cell lysates were clarified by centrifugation at 13,000×g at 4° C. for 10 min, and the supernatants were incubated with the 20 μg of GST-Rho binding domain of Rhotekin beads (Upstate Biotech.) at 4° C. for 45 min. The beads were washed 4 times with washing buffer (50 mM Tris (pH 7.5) containing 1% Triton X-100, 150 mM NaCl, 10 mM MgCl2, 10 μg/ml each of leupeptin and aprotinin). Bound Rho proteins were detected by Western blotting using a monoclonal antibody against RhoA (Santa Cruz Biotechnology).\nAmino-terminally FLAG-tagged human p75 or the deletion mutants of p75 ICD were cloned into pcDNA3.1 expression plasmid, and were transfected with 293T cells. […] Bound Rho proteins were detected by Western blotting using a monoclonal antibody against RhoA (Santa Cruz Biotechnology)."}, "[7]": {"target": "T2, interaction of p75 with Rho GDI (Homo sapiens, UniProt P08138)", "T2 construct": "expressed in transfected cells; host or cells: N1E-115", "T2 sequence (P08138 29-427)": "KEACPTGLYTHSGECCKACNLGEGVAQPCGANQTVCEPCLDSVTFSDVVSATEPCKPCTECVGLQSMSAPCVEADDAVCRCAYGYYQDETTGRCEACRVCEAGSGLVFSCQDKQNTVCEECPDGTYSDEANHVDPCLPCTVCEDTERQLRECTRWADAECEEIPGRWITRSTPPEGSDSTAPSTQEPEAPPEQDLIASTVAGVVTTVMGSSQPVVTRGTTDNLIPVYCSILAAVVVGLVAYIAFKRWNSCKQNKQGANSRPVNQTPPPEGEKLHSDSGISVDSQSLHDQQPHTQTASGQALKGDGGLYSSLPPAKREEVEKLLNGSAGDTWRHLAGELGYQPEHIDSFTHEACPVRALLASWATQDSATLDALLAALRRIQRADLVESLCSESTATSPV", "assay": "Co-immunoprecipitation of p75 with Rho GDI or RhoA in transfected N1E-115 cells", "assay_type": "cell-based", "conditions": "N1E-115 cells transfected with FLAG-tagged p75; Nogo peptide 4 μM, MAG-Fc 25 μg/ml, NGF 100 ng/ml"}}, "note": "“Also recorded” adds a separate entry of the source. Where no end group is shown, it is not given here.", "data": [{"compound": "GST-Pep5: Glutathione S-transferase-fusion protein containing Pep5 (CFFRGGFFNHNPRYC; cysteine pairing not given here; also: GST fusion protein)", "values": [{"measurement": "co-precipitation of p75 with GST-Pep5", "setting": "p75", "result": "presence of a protein corresponding to p75"}]}, {"compound": "COc1ccc2c(c1)CC[C@@H]1[C@@H]2CC[C@]2(C)[C@@H](NCCCCCCN3C(=O)C=CC3=O)CC[C@@H]12", "note": "[U73122]", "values": [{"measurement": "effect on Ca2+ elevation induced by MAG", "setting": "[1]", "result": "blocked"}]}, {"compound": "p21: recombinant full-length p21 (1-164 in SEQ ID NO. 23), cyclin-dependent protein kinase inhibitor", "values": [{"measurement": "Rho-kinase activity toward S6 kinase substrate peptide", "setting": "[2]", "result": "inhibited the Rho-kinase activity toward S6 kinase substrate peptide in a dose-dependent manner"}, {"measurement": "in vitro interaction with the catalytic region of Rho-kinase", "setting": "[3]", "result": "bound to each other in vitro"}, {"measurement": "functional recovery after spinal cord injury (BBB score)", "setting": "male Wistar rats [4]", "result": "not sufficiently observed"}]}, {"compound": "Cn1c2ccccc2c2c3c(c4c5ccccc5n(CCC#N)c4c21)CNC3=O", "note": "[G06976]", "values": [{"measurement": "neurite outgrowth by MAG-Fc or Nogo peptide when another PKC inhibitor was used", "setting": "[5]", "result": "Same results"}]}, {"compound": "TAT-CFFRGGFFNHNPRYC ({TAT}-CFFRGGFFNHNPRYC; cysteine pairing not given here) [TAT-Pep5, Pep5 fused with the amino-terminal 11 amino acid protein transduction domain of HIV TAT]", "values": [{"measurement": "nerve regeneration after spinal cord injury", "setting": "male Wistar rats [6]", "result": "nerve regeneration was significantly observed"}, {"measurement": "inhibitory effect of MAG (25 μg/ml) and the Nogo peptide (4 μM) on post-natal cerebellar neurons", "setting": "cerebellar neurons", "result": "efficiently silenced the inhibitory effect"}, {"measurement": "nerve regeneration after spinal cord injury", "setting": "mice", "result": "nerve regeneration was similarly observed"}, {"measurement": "responsiveness of DRG neurons to MAG (25 μg/ml) and the Nogo peptide (4 μM)", "setting": "DRG neurons", "result": "abolished their responsiveness"}, {"measurement": "activation of RhoA induced by MAG-Fc or the Nogo peptide", "setting": "RhoA; TAT-Pep5 1 μM, 30 min", "result": "inhibited the activation of RhoA; also recorded: completely abolishes these effects"}]}, {"compound": "NGF: Nerve growth factor [reference compound]", "values": [{"measurement": "interaction of p75 with Rho GDI and RhoA", "setting": "[7]", "result": "abolished the interaction of p75 with Rho GDI as well as RhoA"}, {"measurement": "RhoA activity in cerebellar granule neurons from wild type mice (P9)", "setting": "RhoA", "result": "rapidly inhibits RhoA activity"}]}]}
